Where a SMILES comes first, the peptide text is derived from it. Bridges are numbered along the chain shown (N, C = ends). [ ]: non-standard residue; d: D form. Phe(4-F) = N[C@@H](Cc1ccc(F)cc1)C(=O)O; 2Nal = N[C@@H](Cc1ccc2ccccc2c1)C(=O)O; Nle = CCCC[C@H](N)C(=O)O; Orn = NCCC[C@H](N)C(=O)O
Key:
[1] = system: guinea pig tracheal smooth muscle; experiment: Tracheal relaxant activity of VIP analogs on isolated guinea pig tracheal rings; assay type: cell-based; settings: cumulative concentration response, relaxation as % of maximum response to VIP (10^-6 M=100%), three tissues pooled, linear regression
Procedure: The relaxant activity of the VIP analogs were studied in a model utilizing guinea pig trachea. [Wasserman, M. A. et al., in Vasoactive Intestinal Peptide, S. I. Said, ed., Raven Press, New York 1982, pp 177-184] All tissues were taken from male albino guinea pig weighing 400-600 g, anesthetized with urethane (2 g/kg, i.p.). After exanguination, the trachea were removed and divided into four ring segments (3 mm length). Each ring was suspended by 30 gauge stainless steel wires in a 10 mL jacketed tissue bath and attached via 4-0 silk thread to a GRASS force displacement transducer (model FT03C, Grass Instruments Co., Quincy, Mass.), for isometric recording of tension. The smooth muscle was bathed in modified Krebs solution of the following composition: NaCl, 120 mM; KCl, 4.7 mM; CaCl2, 2.5 mM; MgSO4.7H2 O, 1.2 mM; NaHCO3, 25 mM; K2 HPO4 monobasic, 1.2 mM; and dextrose, 10 mM. Tissue baths were maintained at 37° C. and constantly bubbled with 95% O2 and 5% CO2. Responses were recorded on an 8 channel and a 4 channel HEWLETT-PACKARD (model 7702B and 7754A, respectively) recorder (Hewlett- Packard, Paramus, N.J.). Tracheal rings were placed under a resting tension of 1.5 g which was determined to be at or near optimal in preliminary experiments. Frequent readjustments of tension were required during the 60 minute stabilization period which followed. Tissues were rinsed at 15 minute intervals.
Cumulative concentration response curves were obtained for each tissue by successive […] increases in the bath concentration of VIP or VIP analogs according to the method of VanRossum [Arch. Int. Pharmacodyn., 143, 299-330 (1963)]. Only one cumulative dose response curve was obtained on a single tissue. To minimize variability between tissues, relaxant responses were expressed as a percentage of the maximum response obtained to VIP (10^-6 M=100%) added at the end of each concentration response experiment. Responses obtained from three tissues were pooled and EC50 values were determined by linear regression.
The results summarized in Table I show the tracheal relaxant activity of the VIP analogs in comparison to native VIP.

[2] = system: guinea pigs; experiment: In vivo bronchodilator activity by tracheal instillation against histamine challenge; parameters: species or system guinea pig; settings: anesthetized male guinea pigs, inhibition of histamine (i.v.)-induced rise in tracheal pressure
Procedure: The in vivo bronchodilator activity of VIP and VIP analogs in guinea pigs was assessed by the tracheal instillation route of administration. This technique utilized male guinea pigs (Hartley strain, Charles River) weighing 400-600 g. Animals were anesthetized with urethane (2 g/kg) intraperitoneally and a polyethylene cannula was inserted into the jugular vein for intraveneous drug administration.
The animals were tracheotomized and dosing solutions of distilled water or test compound dissolved in distilled water were administered into the trachea, approximately three-quarters the distance to the carina with a pipette. The concentration of the dosing solution was adjusted to deliver a constant volume of […]. The animals were placed supine for one minute to aid drug delivery to the lung. One minute later, spontaneous breathing was arrested with succinylcholine chloride (1.2 mg/kg) administered intraveneously, and the animals were ventilated with a HARVARD Model 680 small animal respirator set at 40 breaths/min and 4.0 cm^3 stroke volume. The animals were challenged with a maximal constrictory dose of histamine ([…], i.v.) and tracheal pressure (cm of water) was recorded from a STATHAM pressure transducer (P 32 AA).
The change in tracheal pressure was averaged for at least 3 control and 3 drug-treated animals and percent inhibition was calculated. The relative potency of compounds administered by the instillation route was determined by administering various doses of test compound and calculating the median effective dose (ED50 value). The ED50 was determined from log dose-response curves generated by at least 3 doses that caused inhibitory effects between 10% and 90%. The correlation coefficients for the regression line of each compound was always greater than 0.95.
For determination of the time course of inhibition for various compounds, the time between administration of compound and challenge with histamine was varied. The time course of activity was calculated as the time when inhibition decreased to 40%.
The results summarized in Table II show the in vivo bronchodilator activity of the VIP analogs in comparison to native VIP.

Structure (SMILES)	EC50 [1] [nM]	Bronchodilator activity of VIP analogs in guinea pigs, ED50 [2] [μg]
CCCC[C@H](NC(=O)[C@@H]1CCC(=O)NCCCC[C@H](NC(=O)[C@@H](NC(=O)[C@H](Cc2ccc(O)cc2)NC(=O)[C@H](CC(N)=O)NC(=O)[C@H](CC(=O)O)NC(=O)[C@@H](NC(=O)[C@H](Cc2ccccc2)NC(=O)[C@@H](NC(=O)[C@H](C)NC(=O)[C@H](CC(=O)O)NC(=O)[C@H](CO)NC(=O)[C@H](Cc2c[nH]cn2)NC(C)=O)C(C)C)[C@@H](C)O)[C@@H](C)O)C(=O)N[C@@H](CC(C)C)C(=O)N[C@@H](CCCNC(=N)N)C(=O)N[C@@H](CCCCN)C(=O)N1)C(=O)N[C@@H](C)C(=O)N[C@H](C(=O)N[C@@H](CCCCN)C(=O)N[C@@H](CCCCN)C(=O)N[C@@H](Cc1ccc(O)cc1)C(=O)N[C@@H](CC(C)C)C(=O)N[C@@H](CC(N)=O)C(=O)N[C@@H](CO)C(=O)N[C@H](C(=O)N[C@@H](CC(C)C)C(=O)N[C@H](C(N)=O)[C@@H](C)O)C(C)C)C(C)C [SEQ ID NO:26, Ac-[Lys^12,Glu^16,Nle^17,Val^26,Thr^28]-VIP cyclo (Lys^12 →Glu^16)] (Ac-HSDAVFTDNYTKLRKE[Nle]AVKKYLNSVLT-NH2; lactam 12-16)	37	39
CCCC[C@H](NC(=O)[C@H](CCC(N)=O)NC(=O)[C@H](CCCCN)NC(=O)[C@H](CCCNC(=N)N)NC(=O)[C@H](CC(C)C)NC(=O)[C@H](CCCCN)NC(=O)[C@@H](NC(=O)[C@H](Cc1ccc(O)cc1)NC(=O)[C@H](CC(N)=O)NC(=O)[C@H](CC(=O)O)NC(=O)[C@@H](NC(=O)[C@H](Cc1ccccc1)NC(=O)[C@@H](NC(=O)[C@H](C)NC(=O)[C@H](CC(=O)O)NC(=O)[C@H](CO)NC(=O)[C@H](Cc1c[nH]cn1)NC(C)=O)C(C)C)[C@@H](C)O)[C@@H](C)O)C(=O)N[C@@H](C)C(=O)N[C@H](C(=O)N[C@H]1CCCCNC(=O)C[C@@H](C(=O)N[C@@H](CO)C(=O)N[C@H](C(=O)N[C@@H](CC(C)C)C(=O)N[C@H](C(N)=O)[C@@H](C)O)C(C)C)NC(=O)[C@H](CC(C)C)NC(=O)[C@H](Cc2ccc(O)cc2)NC(=O)[C@H](CCCCN)NC1=O)C(C)C [SEQ ID NO:27, Ac-[Lys^12,Nle^17,Asp^24,Val^26,Thr^28]-VIP cyclo (Lys^20 →Asp^24)] (Ac-HSDAVFTDNYTKLRKQ[Nle]AVKKYLDSVLT-NH2; lactam 20-24)	5.3	2.3
CCCC[C@H](NC(=O)[C@H](CCC(N)=O)NC(=O)[C@H](CCCCN)NC(=O)[C@H](CCCNC(=N)N)NC(=O)[C@H](CC(C)C)NC(=O)[C@H](CCCCN)NC(=O)[C@@H](NC(=O)[C@H](Cc1ccc(O)cc1)NC(=O)[C@H](CC(N)=O)NC(=O)[C@H](CC(=O)O)NC(=O)[C@@H](NC(=O)[C@H](Cc1ccccc1)NC(=O)[C@@H](NC(=O)[C@H](C)NC(=O)[C@H](CC(=O)O)NC(=O)[C@H](CO)NC(=O)[C@H](Cc1c[nH]cn1)NC(C)=O)C(C)C)[C@@H](C)O)[C@@H](C)O)C(=O)N[C@@H](C)C(=O)N[C@H](C(=O)N[C@@H](CCCCN)C(=O)N[C@H]1CCCCNC(=O)C[C@@H](C(=O)N[C@H](C(=O)N[C@@H](CC(C)C)C(=O)N[C@H](C(N)=O)[C@@H](C)O)C(C)C)NC(=O)[C@H](CC(N)=O)NC(=O)[C@H](CC(C)C)NC(=O)[C@H](Cc2ccc(O)cc2)NC1=O)C(C)C [SEQ ID NO:28, Ac-[Lys^12,Nle^17,Asp^25,Val^26,Thr^28]-VIP cyclo (Lys^21 →Asp^25)] (Ac-HSDAVFTDNYTKLRKQ[Nle]AVKKYLNDVLT-NH2; lactam 21-25)	3.1	1.2
CCCC[C@H](NC(=O)[C@H](CCC(N)=O)NC(=O)[C@H](CCCCN)NC(=O)[C@H](CCCNC(=N)N)NC(=O)[C@H](CC(C)C)NC(=O)[C@H](CCCCN)NC(=O)[C@@H](NC(=O)[C@H](Cc1ccc(O)cc1)NC(=O)[C@H](CC(N)=O)NC(=O)[C@H](CC(=O)O)NC(=O)[C@@H](NC(=O)[C@H](Cc1ccccc1)NC(=O)[C@@H](NC(=O)[C@H](C)NC(=O)[C@H](CC(=O)O)NC(=O)[C@H](CO)NC(=O)[C@H](Cc1c[nH]cn1)NC(C)=O)C(C)C)[C@@H](C)O)[C@@H](C)O)C(=O)N[C@@H](C)C(=O)N[C@@H](C)C(=O)N[C@@H](CCCCN)C(=O)N[C@H]1CCCCNC(=O)C[C@@H](C(=O)N[C@H](C(=O)N[C@@H](CC(C)C)C(=O)N[C@H](C(N)=O)[C@@H](C)O)C(C)C)NC(=O)[C@H](CC(N)=O)NC(=O)[C@H](CC(C)C)NC(=O)[C@H](Cc2ccc(O)cc2)NC1=O [SEQ ID NO:29, Ac-[Lys^12,Nle^17,Ala^19,Asp^25,Val^26,Thr^28]-VIP cyclo (Lys^21 →Asp^25)] (Ac-HSDAVFTDNYTKLRKQ[Nle]AAKKYLNDVLT-NH2; lactam 21-25)	0.7	0.34
CCCC[C@H](NC(=O)[C@H](CCC(N)=O)NC(=O)[C@H](CCCCN)NC(=O)[C@H](CCCNC(=N)N)NC(=O)[C@H](CC(C)C)NC(=O)[C@H](CCCCN)NC(=O)[C@@H](NC(=O)[C@H](Cc1ccc2ccccc2c1)NC(=O)[C@H](CC(N)=O)NC(=O)[C@H](CC(=O)O)NC(=O)[C@@H](NC(=O)[C@H](Cc1ccc(F)cc1)NC(=O)[C@@H](NC(=O)[C@H](C)NC(=O)[C@H](CC(=O)O)NC(=O)[C@H](CO)NC(=O)[C@H](Cc1c[nH]cn1)NC(C)=O)C(C)C)[C@@H](C)O)[C@@H](C)O)C(=O)N[C@@H](C)C(=O)N[C@H](C(=O)N[C@@H](CCCCN)C(=O)N[C@H]1CCCCNC(=O)C[C@@H](C(=O)N[C@H](C(=O)N[C@@H](CC(C)C)C(=O)N[C@H](C(=O)NCC(=O)NCC(=O)N[C@@H](CCSC)C(N)=O)[C@@H](C)O)C(C)C)NC(=O)[C@H](CC(N)=O)NC(=O)[C@H](CC(C)C)NC(=O)[C@H](Cc2ccc(O)cc2)NC1=O)C(C)C [SEQ ID NO:30, Ac-[p-F-Phe^6,2-Nal^10,Lys^12,Nle^17,Asp^25,Val^26,Thr^28,Gly^29,30,Met^31]-VIP (1-31)-NH2 cyclo (Lys^21 →Asp^25)] (Ac-HSDAV[Phe(4-F)]TDN[2Nal]TKLRKQ[Nle]AVKKYLNDVLTGGM-NH2; lactam 21-25)	1.3	0.90
CCCC[C@H](NC(=O)[C@H](CCC(N)=O)NC(=O)[C@H](CCCCN)NC(=O)[C@H](CCCNC(=N)N)NC(=O)[C@H](CC(C)C)NC(=O)[C@H](CCCN)NC(=O)[C@@H](NC(=O)[C@H](Cc1ccc(O)cc1)NC(=O)[C@H](CC(N)=O)NC(=O)[C@H](CCC(=O)O)NC(=O)[C@@H](NC(=O)[C@H](Cc1ccccc1)NC(=O)[C@@H](NC(=O)[C@H](C)NC(=O)[C@H](CC(=O)O)NC(=O)[C@H](CO)NC(=O)[C@H](Cc1c[nH]cn1)NC(C)=O)C(C)C)[C@@H](C)O)[C@@H](C)O)C(=O)N[C@@H](C)C(=O)N[C@H](C(=O)N[C@@H](CCCCN)C(=O)N[C@H]1CCCCNC(=O)C[C@@H](C(=O)N[C@H](C(=O)N[C@@H](CC(C)C)C(=O)N[C@H](C(N)=O)[C@@H](C)O)C(C)C)NC(=O)[C@H](CC(N)=O)NC(=O)[C@H](CC(C)C)NC(=O)[C@H](Cc2ccc(O)cc2)NC1=O)C(C)C [SEQ ID NO:31, Ac-[Glu^8,Orn^12,Nle^17,Asp^25,Val^26,Thr^28]-VIP cyclo (Lys^21 →Asp^25)] (Ac-HSDAVFTENYT[Orn]LRKQ[Nle]AVKKYLNDVLT-NH2; lactam 21-25)	2.2	0.19

— patent US5677419A, “Cyclic vasoactive peptide analogs” (Hoffmann-La Roche Inc., priority 1994, dated 1997)
